Measured values: the NIST ThermoML archive (doi:10.1016/j.jct.2012.06.031)
± gives the expanded uncertainty stated by the source.

Assay: xn = mol fraction of the nth substance listed
Settings: 101 kPa, Liquid; for viscosity: Concentric cylinders viscometry; for mass density: Vibrating tube method

## OCCCO [propan-1,3-diol] + c1ccncc1
288.15 K, x2 = 0
  viscosity: 66.53 ± 0.72 mPa·s
  mass density: 1056.12 ± 0.95 kg/m3
288.15 K, x2 = 0.0999
  viscosity: 50.57 ± 0.47 mPa·s
  mass density: 1050.49 ± 0.79 kg/m3
288.15 K, x2 = 0.2
  viscosity: 35.44 ± 0.32 mPa·s
  mass density: 1044.96 ± 0.64 kg/m3
288.15 K, x2 = 0.3
  viscosity: 23 ± 0.19 mPa·s
  mass density: 1038.93 ± 0.51 kg/m3
288.15 K, x2 = 0.4001
  viscosity: 14.29 ± 0.11 mPa·s
  mass density: 1032.58 ± 0.39 kg/m3
288.15 K, x2 = 0.5
  viscosity: 8.708 ± 0.06 mPa·s
  mass density: 1025.96 ± 0.29 kg/m3
288.15 K, x2 = 0.5999
  viscosity: 5.207 ± 0.033 mPa·s
  mass density: 1018.97 ± 0.22 kg/m3
288.15 K, x2 = 0.7
  viscosity: 3.264 ± 0.019 mPa·s
  mass density: 1011.77 ± 0.17 kg/m3
288.15 K, x2 = 0.7998
  viscosity: 2.111 ± 0.013 mPa·s
  mass density: 1004.3 ± 0.14 kg/m3
288.15 K, x2 = 0.8998
  viscosity: 1.46 ± 0.01 mPa·s
  mass density: 996.608 ± 0.12 kg/m3
293.15 K, x2 = 0
  viscosity: 51.91 ± 0.53 mPa·s
  mass density: 1053.02 ± 0.95 kg/m3
293.15 K, x2 = 0.0999
  viscosity: 39.57 ± 0.39 mPa·s
  mass density: 1047.19 ± 0.78 kg/m3
293.15 K, x2 = 0.2
  viscosity: 27.99 ± 0.25 mPa·s
  mass density: 1041.48 ± 0.63 kg/m3
293.15 K, x2 = 0.3
  viscosity: 18.46 ± 0.15 mPa·s
  mass density: 1035.25 ± 0.5 kg/m3
293.15 K, x2 = 0.4001
  viscosity: 11.68 ± 0.088 mPa·s
  mass density: 1028.71 ± 0.39 kg/m3
293.15 K, x2 = 0.5
  viscosity: 7.266 ± 0.049 mPa·s
  mass density: 1021.91 ± 0.29 kg/m3
293.15 K, x2 = 0.5999
  viscosity: 4.467 ± 0.028 mPa·s
  mass density: 1014.73 ± 0.22 kg/m3
293.15 K, x2 = 0.7
  viscosity: 2.869 ± 0.017 mPa·s
  mass density: 1007.35 ± 0.17 kg/m3
293.15 K, x2 = 0.7998
  viscosity: 1.897 ± 0.012 mPa·s
  mass density: 999.687 ± 0.14 kg/m3
293.15 K, x2 = 0.8998
  viscosity: 1.336 ± 0.0099 mPa·s
  mass density: 991.803 ± 0.12 kg/m3
298.15 K, x2 = 0
  viscosity: 41.04 ± 0.44 mPa·s
  mass density: 1049.91 ± 0.94 kg/m3
298.15 K, x2 = 0.0999
  viscosity: 31.39 ± 0.31 mPa·s
  mass density: 1043.89 ± 0.77 kg/m3
298.15 K, x2 = 0.2
  viscosity: 22.36 ± 0.2 mPa·s
  mass density: 1037.98 ± 0.63 kg/m3
298.15 K, x2 = 0.3
  viscosity: 14.91 ± 0.12 mPa·s
  mass density: 1031.55 ± 0.5 kg/m3
298.15 K, x2 = 0.4001
  viscosity: 9.617 ± 0.072 mPa·s
  mass density: 1024.82 ± 0.38 kg/m3
298.15 K, x2 = 0.5
  viscosity: 6.147 ± 0.042 mPa·s
  mass density: 1017.85 ± 0.29 kg/m3
298.15 K, x2 = 0.5999
  viscosity: 3.867 ± 0.025 mPa·s
  mass density: 1010.48 ± 0.22 kg/m3
298.15 K, x2 = 0.7
  viscosity: 2.54 ± 0.016 mPa·s
  mass density: 1002.91 ± 0.17 kg/m3
298.15 K, x2 = 0.7998
  viscosity: 1.715 ± 0.011 mPa·s
  mass density: 995.061 ± 0.14 kg/m3
298.15 K, x2 = 0.8998
  viscosity: 1.228 ± 0.0096 mPa·s
  mass density: 986.987 ± 0.12 kg/m3
303.15 K, x2 = 0
  viscosity: 32.84 ± 0.35 mPa·s
  mass density: 1046.79 ± 0.93 kg/m3
303.15 K, x2 = 0.0999
  viscosity: 25.21 ± 0.25 mPa·s
  mass density: 1040.57 ± 0.77 kg/m3
303.15 K, x2 = 0.2
  viscosity: 18.15 ± 0.16 mPa·s
  mass density: 1034.47 ± 0.62 kg/m3
303.15 K, x2 = 0.3
  viscosity: 12.34 ± 0.1 mPa·s
  mass density: 1027.85 ± 0.49 kg/m3
303.15 K, x2 = 0.4001
  viscosity: 8.079 ± 0.061 mPa·s
  mass density: 1020.93 ± 0.38 kg/m3
303.15 K, x2 = 0.5
  viscosity: 5.244 ± 0.036 mPa·s
  mass density: 1013.76 ± 0.28 kg/m3
303.15 K, x2 = 0.5999
  viscosity: 3.38 ± 0.022 mPa·s
  mass density: 1006.21 ± 0.21 kg/m3
303.15 K, x2 = 0.7
  viscosity: 2.266 ± 0.015 mPa·s
  mass density: 998.466 ± 0.17 kg/m3
303.15 K, x2 = 0.7998
  viscosity: 1.557 ± 0.011 mPa·s
  mass density: 990.425 ± 0.14 kg/m3
303.15 K, x2 = 0.8998
  viscosity: 1.132 ± 0.0093 mPa·s
  mass density: 982.158 ± 0.12 kg/m3
308.15 K, x2 = 0
  viscosity: 26.58 ± 0.28 mPa·s
  mass density: 1043.64 ± 0.93 kg/m3
308.15 K, x2 = 0.0999
  viscosity: 20.48 ± 0.2 mPa·s
  mass density: 1037.24 ± 0.76 kg/m3
308.15 K, x2 = 0.2
  viscosity: 14.88 ± 0.13 mPa·s
  mass density: 1030.94 ± 0.62 kg/m3
308.15 K, x2 = 0.3
  viscosity: 10.26 ± 0.085 mPa·s
  mass density: 1024.12 ± 0.49 kg/m3
308.15 K, x2 = 0.4001
  viscosity: 6.845 ± 0.052 mPa·s
  mass density: 1017.01 ± 0.38 kg/m3
308.15 K, x2 = 0.5
  viscosity: 4.549 ± 0.032 mPa·s
  mass density: 1009.66 ± 0.28 kg/m3
308.15 K, x2 = 0.5999
  viscosity: 2.976 ± 0.019 mPa·s
  mass density: 1001.93 ± 0.21 kg/m3
308.15 K, x2 = 0.7
  viscosity: 2.033 ± 0.014 mPa·s
  mass density: 994 ± 0.17 kg/m3
308.15 K, x2 = 0.7998
  viscosity: 1.424 ± 0.01 mPa·s
  mass density: 985.773 ± 0.14 kg/m3
308.15 K, x2 = 0.8998
  viscosity: 1.05 ± 0.0091 mPa·s
  mass density: 977.312 ± 0.12 kg/m3
313.15 K, x2 = 0
  viscosity: 21.74 ± 0.23 mPa·s
  mass density: 1040.49 ± 0.92 kg/m3
313.15 K, x2 = 0.0999
  viscosity: 16.82 ± 0.17 mPa·s
  mass density: 1033.89 ± 0.76 kg/m3
313.15 K, x2 = 0.2
  viscosity: 12.32 ± 0.11 mPa·s
  mass density: 1027.39 ± 0.61 kg/m3
313.15 K, x2 = 0.3
  viscosity: 8.615 ± 0.071 mPa·s
  mass density: 1020.38 ± 0.48 kg/m3
313.15 K, x2 = 0.4001
  viscosity: 5.832 ± 0.044 mPa·s
  mass density: 1013.08 ± 0.37 kg/m3
313.15 K, x2 = 0.5
  viscosity: 3.951 ± 0.028 mPa·s
  mass density: 1005.55 ± 0.28 kg/m3
313.15 K, x2 = 0.5999
  viscosity: 2.636 ± 0.018 mPa·s
  mass density: 997.629 ± 0.21 kg/m3
313.15 K, x2 = 0.7
  viscosity: 1.835 ± 0.013 mPa·s
  mass density: 989.518 ± 0.17 kg/m3
313.15 K, x2 = 0.7998
  viscosity: 1.307 ± 0.01 mPa·s
  mass density: 981.102 ± 0.14 kg/m3
313.15 K, x2 = 0.8998
  viscosity: 0.975 ± 0.0089 mPa·s
  mass density: 972.452 ± 0.13 kg/m3
318.15 K, x2 = 0
  viscosity: 17.95 ± 0.19 mPa·s
  mass density: 1037.31 ± 0.91 kg/m3
318.15 K, x2 = 0.0999
  viscosity: 13.94 ± 0.14 mPa·s
  mass density: 1030.51 ± 0.75 kg/m3
318.15 K, x2 = 0.2
  viscosity: 10.31 ± 0.093 mPa·s
  mass density: 1023.82 ± 0.6 kg/m3
318.15 K, x2 = 0.3
  viscosity: 7.299 ± 0.06 mPa·s
  mass density: 1016.62 ± 0.48 kg/m3
318.15 K, x2 = 0.4001
  viscosity: 5.033 ± 0.038 mPa·s
  mass density: 1009.13 ± 0.37 kg/m3
318.15 K, x2 = 0.5
  viscosity: 3.455 ± 0.024 mPa·s
  mass density: 1001.41 ± 0.27 kg/m3
318.15 K, x2 = 0.5999
  viscosity: 2.35 ± 0.016 mPa·s
  mass density: 993.305 ± 0.21 kg/m3
318.15 K, x2 = 0.7
  viscosity: 1.663 ± 0.012 mPa·s
  mass density: 985.015 ± 0.17 kg/m3
318.15 K, x2 = 0.7998
  viscosity: 1.204 ± 0.0098 mPa·s
  mass density: 976.412 ± 0.14 kg/m3
318.15 K, x2 = 0.8998
  viscosity: 0.9082 ± 0.0088 mPa·s
  mass density: 967.572 ± 0.13 kg/m3
323.15 K, x2 = 0
  viscosity: 14.96 ± 0.16 mPa·s
  mass density: 1034.12 ± 0.91 kg/m3
323.15 K, x2 = 0.0999
  viscosity: 11.75 ± 0.12 mPa·s
  mass density: 1027.12 ± 0.74 kg/m3
323.15 K, x2 = 0.2
  viscosity: 8.779 ± 0.079 mPa·s
  mass density: 1020.24 ± 0.6 kg/m3
323.15 K, x2 = 0.3
  viscosity: 6.286 ± 0.052 mPa·s
  mass density: 1012.83 ± 0.47 kg/m3
323.15 K, x2 = 0.4001
  viscosity: 4.412 ± 0.034 mPa·s
  mass density: 1005.15 ± 0.36 kg/m3
323.15 K, x2 = 0.5
  viscosity: 3.078 ± 0.022 mPa·s
  mass density: 997.251 ± 0.27 kg/m3
323.15 K, x2 = 0.5999
  viscosity: 2.139 ± 0.015 mPa·s
  mass density: 988.961 ± 0.21 kg/m3
323.15 K, x2 = 0.7
  viscosity: 1.53 ± 0.011 mPa·s
  mass density: 980.49 ± 0.17 kg/m3
323.15 K, x2 = 0.7998
  viscosity: 1.119 ± 0.0096 mPa·s
  mass density: 971.701 ± 0.14 kg/m3
323.15 K, x2 = 0.8998
  viscosity: 0.8532 ± 0.0086 mPa·s
  mass density: 962.672 ± 0.13 kg/m3
